Measurements reported in publication PMC11843613, “Further Optimization of the mGlu1 PAM VU6024578/BI02982816: Discovery and Characterization of VU6033685” (ACS Chemical Neuroscience, 2025).
Values joined by “and” are separate entries in the source; they are usually repeats but may differ in a detail not shown here. Equal values may be shown once. Read-outs that look alike come from different tables or passages of the source.

Legend:
h mGlu5 = h mGlu5 (Homo sapiens, UniProt P41594); test: mGlu5 PAM functional assay; assay type: cell-based
h mGlu5, sequence (P41594 21-1212): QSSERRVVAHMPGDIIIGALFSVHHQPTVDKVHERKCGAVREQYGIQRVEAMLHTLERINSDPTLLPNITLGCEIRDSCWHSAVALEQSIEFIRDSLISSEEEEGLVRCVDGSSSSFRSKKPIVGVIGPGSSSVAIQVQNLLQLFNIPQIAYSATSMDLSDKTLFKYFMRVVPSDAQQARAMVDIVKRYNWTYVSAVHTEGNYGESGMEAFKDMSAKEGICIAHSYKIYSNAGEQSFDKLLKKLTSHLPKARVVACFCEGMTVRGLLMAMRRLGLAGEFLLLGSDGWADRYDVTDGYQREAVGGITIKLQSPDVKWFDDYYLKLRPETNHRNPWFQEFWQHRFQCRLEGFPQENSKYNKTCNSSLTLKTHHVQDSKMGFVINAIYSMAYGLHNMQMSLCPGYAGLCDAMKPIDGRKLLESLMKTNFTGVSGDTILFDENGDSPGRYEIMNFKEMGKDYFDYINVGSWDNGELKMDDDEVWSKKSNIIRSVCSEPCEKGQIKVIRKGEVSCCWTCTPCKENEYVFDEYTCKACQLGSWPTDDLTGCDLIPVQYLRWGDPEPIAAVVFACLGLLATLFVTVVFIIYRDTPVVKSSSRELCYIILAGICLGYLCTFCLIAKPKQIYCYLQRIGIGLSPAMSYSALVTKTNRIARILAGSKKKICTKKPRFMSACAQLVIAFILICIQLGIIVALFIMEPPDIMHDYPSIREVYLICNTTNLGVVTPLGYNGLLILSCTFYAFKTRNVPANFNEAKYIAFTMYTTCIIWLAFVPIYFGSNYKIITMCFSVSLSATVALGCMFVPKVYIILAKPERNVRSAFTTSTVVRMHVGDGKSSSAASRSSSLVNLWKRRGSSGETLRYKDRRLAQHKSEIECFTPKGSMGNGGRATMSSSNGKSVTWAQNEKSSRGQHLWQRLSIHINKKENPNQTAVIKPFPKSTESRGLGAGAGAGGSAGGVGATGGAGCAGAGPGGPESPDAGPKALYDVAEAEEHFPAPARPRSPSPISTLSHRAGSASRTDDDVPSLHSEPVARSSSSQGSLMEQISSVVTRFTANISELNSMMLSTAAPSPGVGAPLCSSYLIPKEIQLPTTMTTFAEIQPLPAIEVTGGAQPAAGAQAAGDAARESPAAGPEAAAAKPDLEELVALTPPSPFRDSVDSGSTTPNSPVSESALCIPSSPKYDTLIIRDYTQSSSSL

[1] = Plasma protein binding (c); assay type: in vitro ADME, c (presumably cynomolgus); details: cynomolgus monkey, pH 7.4, read-out: fu plasma (c)
Method: page 13: at half log concentrations in DMSO were further diluted in assay buffer. The compounds or DMSO vehicle were added to cells and incubated for 2.5 min and an EC20 concentration of glutamate was added and incubated for 1 min. An ECmax concentration of glutamate was also added to cells that were incubated with DMSO vehicle to accurately calculate the EC20 calcium response. Data were normalized by subtracting the basal florescent peak before EC20 agonist addition from the maximal peak elicited by EC20 agonist and PAMs. Using GraphPad Prism 5.0, the concentration response curves were generated and the potencies of the mGlu1 PAMs were determined. DMPK Methods Plasma protein binding: The protein binding of each compound was determined in plasma via equilibrium dialysis employing RED Plates (ThermoFisher Scientific, Rochester, NY). Plasma was added to the 96 well plate containing test compound and mixed thoroughly for a final concentration of 5 µM. Subsequently, an aliquot of the plasma-compound mixture was transferred to the cis chamber (red) of the RED plate, with an phosphate buffer (25 mM, pH 7.4) in the trans chamber. The RED plate was sealed and incubated for 4 hours at 37°C with shaking. […] The in vitro half-life (T 1/2, min, Eq. 1), intrinsic clearance (CLint, mL/min/kg, Eq. 2) and subsequent predicted hepatic clearance (CLhep, mL/min/kg, Eq. 3) was determined S13

[2] = Rat amphetamine-induced hyperlocomotion (AHL) with satellite PK; assay type: in vivo; details: male, Sprague-Dawley, brain (unbound); for concentration at 1.25 h: sample @ 1.25 hr
Method: (§1) mode (5.0 kV spray voltage). The calibration curves were constructed in blank plasma. All data were analyzed using AB Sciex Analyst software v1.5.1.
(§2) All animal study procedures were approved by the Institutional Animal Care and Use Committee and were conducted in accordance with the National Institutes of Health regulations of animal care covered in Principles of Laboratory Animal Care (National Institutes of Health). […]
(§3) GraphPad Prism (version 4.03, GraphPad, La Jolla, CA).
(§4) Amphetamine-induced hyperlocomotion (rat)
(§5) Adult male Sprague-Dawley rats placed into the activity chambers (Med Associates). Thirty minutes after placement in the chambers, the rats were administered VU6024578 (1-10 mg/kg p.o..) or vehicle. Sixty minutes later the rats were injected with amphetamine (0.75 mg/kg s.c. 1 ml/kg) or vehicle (saline) and placed back in the activity chambers for 90 minutes. The data for the studies were analyzed by a between-group 2 way analysis of variance for compound dose and time. Each dose group was compared with the vehicle control group. The calculations were performed and graphed using GraphPad Prism (version 4.03, GraphPad, La Jolla, CA). The AUC was analyzed by a 1-way ANOVA with a Dunnett’s post hoc test. […]

[3] = system: amphetamine-induced hyperlocomotion in rats; test: as above; assay type: in vivo
Method: as §1, §2, §3, §4, §5

striatal DA release = test: Electrically evoked striatal DA release in brain slices (fast scanning cyclic voltammetry); details: 10 μM PAM + 10 μM DHPG, mouse slices, 1 μM DHβE present
Method: into the home cage. The arena is then cleaned with 70% ethanol in between animals. The day of the test the animals are habituated to the dosing room for 2 hours. The animals were administered VU6024578 (1-10 mg/kg p.o.) or vehicle (10% Tween 80) and were placed back into their homecage for 60 min. The animals were then injected with MK-801 (0.075 mg/kg 1 ml/kg s.c.) and placed back in the homecage for 30 min. The animals are then placed into the arena with two identical familiar objects for ten minutes and then placed back into the home cage. The animals are then placed back into the arena with one of the familiar objects replaced with a novel object at 120 min after the familiar object exposure. The activity of the animals are recorded and the time spent exploring each of the objects is scored by a blinded observer. Recognition index is determined by subtracting […] divided by total time spent exploring.
Brain Slice Preparation and Fast Scanning Cyclic Voltammetry: […]
Electrically-evoked dopamine overflow was monitored with carbon fiber electrodes as previously reported (Foster et al. 2014). […]

[4] = Sprague-Dawley, in vivo

Cc1nc(C2CC2)ccc1CNC(=O)c1cc(-n2cccn2)ccc1Cl [compound 8]
mGlu5 Glu Max (h mGlu5): 72%
EC50 (h mGlu5; Table 1, unit inferred): 3.76 µM
fraction unbound at 4 h, 5 µM [1]: 0.46
concentration at 1.25 h ([2]; rat PO 1 mg/kg, read-out: Brain Unbound at 1 mg/kg): 16.1 nM
concentration at 1.25 h ([2]; rat PO 3 mg/kg, read-out: Brain Unbound at 3 mg/kg): 35.4 nM
concentration at 2.5 h ([2]; rat PO 10 mg/kg, satellite PK, 2.5 h end of study (picture: sample @ 1.25 hr), read-out: free (unbound) brain concentration at 10 mg/kg): 79.8 nM
AHL efficacy compared with positive control 3 ([3]; rat): comparable efficacy to the standard 3
minimum effective dose (MED) in AHL ([3]; rat PO): 10 mg/kg
unbound brain concentration as fold of in vitro rat mGlu1 EC50 at efficacy in AHL ([3]; rat, 10 mg/kg MED, 10 mg/kg): ~0.74 fold and ~0.7 fold
reversal of amphetamine-induced hyperlocomotion ([3]; rat, oral administration, amphetamine 0.75 mg/kg SC): dose-dependently reversed
effect on striatal DA release when coapplied with subthreshold DHPG (striatal DA release): robust inhibition of DA release
free brain concentration (fold rat EC50) that was well tolerated [4]: up to 5.3 fold
